We go through six molecules from article PMC11224282, “Insight into binding of endogenous neurosteroid ligands to the sigma-1 receptor” (Nature Communications, 2024).

One data set deals with σ1R. As to conditions: cited from earlier work; for Ki: inhibition of radioligand (e.g. [3H]SKF-10,047) binding to σ1R.
Another data set addresses T1, xlσ1R wild-type (Xenopus laevis, UniProt Q6DCU6).
T1 construct: hemagglutinin signal peptide (N); made in house; host or cells: Pichia pastoris GS115
T1 sequence (Q6DCU6 1-221): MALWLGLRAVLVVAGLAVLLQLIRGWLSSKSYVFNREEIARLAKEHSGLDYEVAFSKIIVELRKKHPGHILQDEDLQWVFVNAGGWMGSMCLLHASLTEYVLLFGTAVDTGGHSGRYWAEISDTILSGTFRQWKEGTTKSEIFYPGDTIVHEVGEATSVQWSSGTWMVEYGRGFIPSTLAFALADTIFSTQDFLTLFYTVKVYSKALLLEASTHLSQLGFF
The data set can be described thus: Microscale thermophoresis (MST) binding to xlσ1R wild-type. On the technique in general: MST reads how a fluorescent partner responds to local heating, with and without ligand.

Another data set deals with T2, xlσ1R E169A (Xenopus laevis, UniProt Q6DCU6, E169A).
T2 construct: hemagglutinin signal peptide (N); made in house; host or cells: Pichia pastoris GS115
T2 sequence (Q6DCU6 1-221 E169A): T1 sequence (Q6DCU6 1-221) with E169A
The data set can be described thus: Microscale thermophoresis (MST) binding to xlσ1R E169A mutant.

Data set [1] concerns the molecule itself. Nature of the data set: crystal structure; sitting-drop vapour diffusion at 20 °C; 0.32 M LiCl, 0.1 M sodium citrate pH 5.5, 12% PEG 4000, 10% glycerol, 15 mM sodium cholate; protein in OG/CHS; no ligand added, or with 1 mM progesterone or 1 mM DHEAS; space groups I432 (trimer by crystal symmetry) and C2 (two trimers in the asymmetric unit).

Numbering of substitutions follows the chain as printed. Counter-ions that a name gives are not always drawn. Like-named read-outs stand apart in the source and are kept apart here.

Turning to `C[C@]12CC[C@H](O)CC1=CC[C@@H]1[C@@H]2CC[C@]2(C)C(=O)CC[C@@H]12` [DHEA, dehydroepiandrosterone], the Ki entry on σ1R was “micromolar range or more”.
In the case of `CC12CCC3C(CC=C4CC(OS(=O)(=O)O)CCC43C)C1CCC2=O` (stereo not drawn) [DHEAS, dehydroepiandrosterone sulfate], the Kd (as a rule, the concentration at which binding is half-saturated) at xlσ1R wild-type (read-out: Kd (mean), MST, wild-type xlσ1R, N = 3, mean (± SD)) was 18 ± 2.5 µM; at xlσ1R wild-type (read-out: Kd Mean, Source Data sheet Supplementary Table 3, wild-type, mean of 3), 18 µM; at xlσ1R wild-type (read-out: Kd Repeat 1, Source Data sheet Supplementary Table 3, wild-type, repeat 1) it was 17.2 µM; at xlσ1R wild-type (read-out: Kd Repeat 2, Source Data sheet Supplementary Table 3, wild-type, repeat 2) it was 15.9 µM; at xlσ1R wild-type (read-out: Kd Repeat 3, Source Data sheet Supplementary Table 3, wild-type, repeat 3) it was 20.8 µM; on xlσ1R E169A (read-out: Kd (mean), MST, xlσ1R E169A, N = 3, mean (± SD)), 456 ± 17 µM. Also, the Kd came out at 456 µM at xlσ1R E169A (read-out: Kd Mean, Source Data sheet Supplementary Table 3, E169A, mean of 3); 471 µM on xlσ1R E169A (read-out: Kd Repeat 1, Source Data sheet Supplementary Table 3, E169A, repeat 1); 438 µM at xlσ1R E169A (read-out: Kd Repeat 2, Source Data sheet Supplementary Table 3, E169A, repeat 2); 460 µM on xlσ1R E169A (read-out: Kd Repeat 3, Source Data sheet Supplementary Table 3, E169A, repeat 3). The Ki result at σ1R is reported as “micromolar range or more”.
Turning to `CCCCCCCCO[C@@H]1O[C@H](CO)[C@@H](O)[C@H](O)[C@H]1O` [OG, octyl-β-D-glucopyranoside], on xlσ1R wild-type (MST binding assay, xlσ1R, printed only in peer review file, OG data removed from final manuscript, read-out: Kd), the Kd came out at 8300 ± 2700 µM.
Consider `CC(=O)[C@H]1CC[C@H]2[C@@H]3CCC4=CC(=O)CC[C@]4(C)[C@H]3CC[C@]12C` [progesterone], for which the Kd on xlσ1R wild-type (MST, wild-type xlσ1R, N = 3, mean (± SD), read-out: Kd (mean)) was 0.94 ± 0.22 µM; at xlσ1R wild-type (Source Data sheet Supplementary Table 3, wild-type, repeat 1, read-out: Kd Repeat 1) it was 0.71 µM; at xlσ1R wild-type (Source Data sheet Supplementary Table 3, wild-type, repeat 2, read-out: Kd Repeat 2), 0.96 µM; at xlσ1R wild-type (Source Data sheet Supplementary Table 3, wild-type, repeat 3, read-out: Kd Repeat 3), 1.14 µM. The “affinity for σ1R” value in the data set on σ1R is given as “in μM range”. Further, at σ1R, the Ki entry is recorded as “submicromolar range”.
For the molecule pregnenolone sulfate, on σ1R, the Ki result is given as “micromolar range or more”.

B1: sigma-1 receptor from Xenopus laevis (xlσ1R), wild type, purification tag removed (receptor)
chain: T1 sequence (Q6DCU6 1-221)
notes: sigma-1 receptor, Xenopus laevis, NCBI NP_001087013.1, wild type; the simulation methods speak of residues 1-33 (transmembrane helix) and 34-219 of the crystal model; Cloned in a modified pPICZ plasmid after a hemagglutinin signal peptide, a decahistidine tag and a TEV protease site; the tag was removed by TEV protease before crystallisation; also called xlσ1R_(unknown-lig); xlσ1R_(prog-co); not …
Turning to B1, the stoichiometry N (commonly the number of molecules, sites or subunits per partner or assembly) in data set [1] worked out at 3.
